{"source": "paper PMC12844208", "about": "“Screening for Peptides to Bind and Functionally Inhibit SARS-CoV-2 Fusion Peptide Using Mirrored Combinatorial Phage Display and Human Proteomic Phage Display” (Molecules, 2026)"}
{"tested_on": "spike-FP12 peptide", "format": "binding, SARS-CoV-2", "units": {"% Count": "%"}}
{"sequence": "GSSYAEMEVMKMIMTL", "% Count": 0.06, "Count (read counts of phage display binding to FP)": 31}
{"sequence": "SFQYADIYEQMMLTGL", "% Count": 0.01, "Count (read counts of phage display binding to FP)": 5}
{"sequence": "QLEHVKLFMQDLSAML", "% Count": 9.07, "Count (read counts of phage display binding to FP)": 4673}
{"sequence": "NFRLSEHRQALAAAKH", "% Count": 0.00, "Count (read counts of phage display binding to FP)": 2}
{"sequence": "GPDRNFRLSEHRQALA", "% Count": 6.59, "Count (read counts of phage display binding to FP)": 3393}
{"sequence": "DTLLPTQQAEVLHPVV", "% Count": 2.70, "Count (read counts of phage display binding to FP)": 1392}
{"sequence": "HPNIKRVTPQRKVFRS", "% Count": 0.01, "Count (read counts of phage display binding to FP)": 3}
{"sequence": "TLPFGDVEYVDLDAFL", "% Count": 0.29, "Count (read counts of phage display binding to FP)": 148}
